In patent US5443986A, “Enzymatic analysis using substrates that yield fluorescent precipitates” (Molecular Probes, Inc., priority 1993, dated 1995):

Assays:
alkaline phosphatase = alkaline phosphatase (Bos taurus, UniProt P19111); type: biochemical; design: mature GPI-type homodimer; settings: 0.1M TRIS pH 10.3, 50 mM NaCl, 10 mM MgCl2, 0.1 mM ZnCl2; double-reciprocal plot
Experimental: As compared with other synthetic substrates, the fluorogenic precipitating substrates described in this invention normally have high enzymatic turnover rates and moderate affinities for the enzymes. Turnover rates of the substrates can be determined as in Example 10 and expressed as micromoles of product per minute per milligram protein (k2, in units of μmol·min^-1 ·mg^-1). The affinity of the substrate is determined by its dissociation constant, KM, in millimolar units. The enzymes can bind to and catalyze conversion of the soluble substrates into detectable reaction products that are apparently less soluble and will precipitate in aqueous solutions. The preferred detectable reaction products are fluorescent precipitates. The precipitation, however, and thus fluorescence, depends on the reaction product concentration or the initial substrate concentration used, as well as the ionization state of the product's phenol group. There are two parameters determining the precipitation, i.e. critical concentration (Mc) and pH dependence (pKa). A method for determination of these parameters is given in Example 11. Table 10 gives the relevant parameters for the enzymatic reaction and precipitation of quinazolinone-based alkaline phosphatase substrates.
4). Kinetic assay of some of the substrates. The specific activity (k2, in a unit of micromole per minute per milligram protein) and Michaelis constant (KM, in a unit of millimole) for hydrolysis of the substrates by the enzyme are listed in Table 10. All of the specific enzymatic reactions are made in the following buffers:
For alkaline phosphatase: 0.1M TRIS pH 10.3 containing 50 mM NaCl, 10 mM MgCl2 and 0.1 mM ZnCl2.
Because the kinetic assay involves variable amounts of precipitate with variable light scattering, measurement in the fluorometer as described above cannot be used here. Instead, a fluorescence plate reader with front-face measurement geometry such as the CytoFluor™ 2300 (Millipore, Bedford, Mass.) is preferred for quantitating the precipitate. The following protocol illustrates the kinetic assay.
4.1 ). In a 96-well plate, pipette 200 μL of a phosphatase substrate in the alkaline phosphatase reaction buffer with a final concentration of 2 to 6 mM, then add 50 μL 1 mg/mL alkaline phosphatase. […] Fluorescence of the precipitate is measured in the CytoFluor with appropriate sensitivity and excitation and emission settings as have been determined with the fluorometer. The fluorescence signal versus the amount of the precipitate is then established for each substrate.
4.2). […] Read the fluorescence of the resulting precipitate after 10 minutes reaction time and calculate the precipitate formation rate per minute by use of the determined fluorescence signal versus the amount of the precipitate. […]

[1] = Critical concentration (Mc) for precipitation of the enzymatic product; type: physicochemical; settings: product of hydrolysis by excess alkaline phosphatase, 0.1M TRIS pH 10.3
Experimental: 2D) Critical concentration: Various concentrations of 2-(4'-methoxy-2'-phosphoryloxyphenyl)quinazolinone (3e) were reacted with 50 μL of excess alkaline phosphatase in 200 μL solution of 0.1M TRIS≥pH 10.3 containing 50 mM NaCl, 10 mM MgCl2 and 0.1 mM ZnCl2. The resulting precipitate and fluorescence were measured in a CytoFluor fluorescence plate reader (Millipore) with excitation at 360 nm, emission at 460 nm using sensitivity setting 3.
3). Determination of the critical concentration and pH dependence for the precipitation. The critical concentration (Mc, in units of mmoles) and the pH dependence (pKa) for precipitation are both important parameters for judging the precipitation properties of the enzymatic products obtained from the subject substrates. Below the critical concentration the product will not be detected as a fluorescent precipitate. Obviously these two parameters contribute to the precipitation in a correlated way. As a simple approach, one may define the critical concentration as the concentration necessary for the precipitation at a high pH where all of the phenol group is ionized. Similarly, acidification by lowering the pH results in precipitation at a concentration below the critical concentration that is obtained at high pH to an extent that is related to the pKa of the phenolic group. It is a characteristic of the preferred substrates that only the product precipitate is fluorescent. In this case the precipitate is quantitated by its fluorescence which results in a correlation of the fluorescence with the degree of precipitation.
To obtain the critical concentration for one product the phosphatase substrate (1e) (200 μL) in a 96-well plate is added to 0.1M TRIS, pH 10.3, containing 50 mM NaCl, 10 mM MgCl2 and 0.1 mM ZnCl2 to yield a final concentration of 0.1 to 10 mM. 50 μL of a 1 mg/mL solution of alkaline phosphatase is then added. The fluorescence development is complete after 5 minutes as measured in using a CytoFluor™ 2300 fluorescence plate reader (Millipore, Bedford, Mass.). A concentration showing appreciable fluorescence is determined as the critical concentration.

Chain of alkaline phosphatase (P19111 20-506): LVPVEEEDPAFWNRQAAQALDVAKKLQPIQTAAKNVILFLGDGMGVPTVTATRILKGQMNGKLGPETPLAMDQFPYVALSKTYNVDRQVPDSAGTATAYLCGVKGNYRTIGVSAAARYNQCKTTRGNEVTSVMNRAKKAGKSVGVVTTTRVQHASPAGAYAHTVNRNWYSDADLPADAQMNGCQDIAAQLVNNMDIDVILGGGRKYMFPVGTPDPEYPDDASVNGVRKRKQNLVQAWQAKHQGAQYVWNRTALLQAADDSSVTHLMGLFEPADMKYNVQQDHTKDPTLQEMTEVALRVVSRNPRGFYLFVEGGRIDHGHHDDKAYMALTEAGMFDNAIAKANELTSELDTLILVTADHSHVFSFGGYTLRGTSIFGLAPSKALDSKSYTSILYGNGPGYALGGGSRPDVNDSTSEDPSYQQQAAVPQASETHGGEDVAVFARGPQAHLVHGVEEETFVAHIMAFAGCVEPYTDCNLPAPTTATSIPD

O=c1[nH]c(-c2cc(Cl)ccc2OP(=O)(O)O)nc2ccc(Cl)cc12 [8e, Ammonium 2-(5'-chloro-2'-phosphoryloxyphenyl)-6-chloro-4-(3H)-quinazolinone]
k2 (specific activity, turnover rate) (alkaline phosphatase): 618.60 µmol/min/mg | Mc (critical concentration for precipitation) [1]: 0.1 mM
